Results published in patent publication US10674728B2, “Pesticidal compositions” (SYNGENTA PARTICIPATIONS AG, priority 2016, dated 2020).

Key:
[1] = tested on: Rhizoctonia solani; assay: Tests against Rhizoctonia solani (foot rot, damping-off), growth inhibition in microtiter plate; type: cell-based; conditions: 72 hrs, 24° C., read-out: Observed % activity
[2] = tested on: Pyricularia orzyae; assay: microbe, parasite or virus in culture; type: cell-based; conditions: 72 h, read-out: Observed % activity
[3] = tested on: Glomerella lagenarium syn. Colletotrichum lagenarium; assay: Tests against Glomerella lagenarium (anthracnose of cucurbits), growth inhibition in microtiter plate; type: cell-based; conditions: Colletotrichum orbiculare, 72 hrs, 24° C., read-out: Observed % activity
[4] = tested on: Rice (Oryza sativa L.) of the local variety ADT45; assay: Heat stress mitigation field trials in rice, grain yield; type: in vivo; conditions: 10 gAl/Ha, foliar spray at panicle formation (BBCH 32), hot season
Description: Tests were conducted to determine the heat stress mitigation efficacy of compositions of the present invention.
Trials were conducted in the Tamil Nadu rice production area (India) during the hot season in 2016.
Rice (Oryza sativa L.) of the local variety ADT45 was mechanically transplanted at four plants per hill with a plant spacing of 16 cm and a row spacing of 30 cm. All trials were performed in good level of water management. Fertilizer was applied in accordance with the best local practice across the trial area.
Commercial treated seeds (no neonicotinoids as seed treatments) were used. Weed control was according to the best local practice in order to provide excellent weed control. Foliar fungicides and insecticides were applied according to common practice (no products that contain neonicotinoids or strobilurins).
The trial design was a randomized bloc design. Plot size was 40 m^2 (4 m width [12 rows] by 10 m row length). Each trial had four replicates. In total, eleven trials were conducted.
Treatments were applied with small-plot hand-held boom sprayer as broadcast foliar spray in close proximity to leaf/canopy surface (25-40 cm distance from the crop), at the following different treatment timings: panicle initiation (BBCH 30), panicle formation (BBCH 32), spikelet differentiation (BBCH 35) and meiosis (BBCH 39).

[5] = (A) Formula (Ia) 10.0 ppm alone

## COc1cccc(Nc2nc(F)nc3[nH]cnc23)c1 [Formula (Ia)]
[1]; (A) Formula (Ia) 5.0 ppm alone, inhibition of growth, photometric
  inhibition at 5 ppm: 7%
[1]; [5]
  inhibition at 10 ppm: 0%
[1]; (A) Formula (Ia) 20.0 ppm alone
  inhibition at 20 ppm: 0%
[2]
  inhibition at 0.1563 ppm: 0%
  inhibition at 10 ppm: 3%
[3]; (A) Formula (Ia) 0.6250 ppm alone, inhibition of growth, photometric at 620 nm
  inhibition at 0.625 ppm: 5%
[3]; (A) Formula (Ia) 1.25 ppm alone
  inhibition at 1.25 ppm: 0%
[3]; (A) Formula (Ia) 2.5 ppm alone
  inhibition at 2.5 ppm: 2%
[3]; (A) Formula (Ia) 5.0 ppm alone
  inhibition at 5 ppm: 0%
[3]; [5]
  inhibition at 10 ppm: 0%
[4]
  Average yield increase compared to UTC: 4.4%
  Yield at 14% MC: 6820 kg/ha

## CC1COC(Cn2cncn2)(c2ccc(Oc3ccc(Cl)cc3)cc2Cl)O1 (stereo not shown) [Difenoconazole, difenoconazole, reference compound]
[1]; (B) Difenoconazole 2.0 ppm alone
  inhibition at 2 ppm: 47%
[2]
  inhibition at 0.0625 ppm: 34%
  inhibition at 0.25 ppm: 71%
[3]; (B) Difenoconazole 0.25 ppm alone
  inhibition at 0.25 ppm: 36%
